The source of these data is article PMC9380551 (Antimicrobial Agents and Chemotherapy, 2022).

This experiment relates to SARS-CoV-2 Wuhan reference strain. Type of experiment: cell-based.

As for `CCC(CC)COC(=O)[C@H](C)N[P@](=O)(OC[C@H]1O[C@@](C#N)(c2ccc3c(N)ncnn23)[C@H](O)[C@@H]1O)Oc1ccccc1` [remdesivir], the “comparative efficiency in inhibiting SARS-CoV-2 replication” value is “the most efficient molecule”.
As for `CC(C)c1nc(CN(C)C(=O)N[C@H](C(=O)N[C@@H](Cc2ccccc2)C[C@H](O)[C@H](Cc2ccccc2)NC(=O)OCc2cncs2)C(C)C)cs1` [ritonavir], the “comparative efficiency in inhibiting SARS-CoV-2 replication” value was “AB-00011778 was more efficient than the ritonavir molecule”.
